PubChem BioAssay AID204 (DTP/NCI, 2004)
“And” between values parts separate entries of the source, which are not always exact repeats. Equal entries are not always repeated. Toxic doses and inconclusive results are not listed. Starred links: 1 amine or outer side, 2 acyl side, 3 side chain; linkers in the order of their positions; H or OH if unused. Positions of bridges follow the written chain, without caps; N, C: chain ends. Non-standard residues stand in square brackets, D forms with d. Residues, ends and D or L forms follow the SMILES beside them. Chains are numbered I, II in the order given. Actinocin(9to1) = Cc1c2oc3c(C)ccc(C(=O)[*:1])c3nc-2c(C(=O)[*:2])c(N)c1=O; aThr = C[C@H](O)[C@H](N)C(=O)O; NMeV = CN[C@H](C(=O)O)C(C)C; Sar = CNCC(=O)O

Test system: BDF1 mice, P288 methotrexate-resistant leukemia, survival T/C
Assay: NCI In Vivo Anticancer Drug Screen. Data for tumor model P288 Lymphocytic Leukemia resistant to methotrexate; NSC 740 (intraperitoneal) in B6D2F1 (BDF1) mice
Conditions: endpoint: median survival time, higher = longer survival
Experimental: The antitumor activity of compounds was measured in mice bearing transplantable tumors. Survival or tumor size were measured and the results are expressed as the measurement made in the treated group (T) divided by the measurement made in the vehicle treated control group (C). The tumor model used in this assay is P288 Lymphocytic Leukemia resistant to methotrexate; NSC 740 (intraperitoneal) in B6D2F1 (BDF1) mice

[1] = dose: 25.0 mg/kg/injection, schedule: Q01DX010 (ip), vehicle: saline
[2] = dose: 50.0 mg/kg/injection, schedule: Q01DX010 (ip), vehicle: saline
[3] = dose: 100.0 mg/kg/injection, schedule: Q01DX010 (ip), vehicle: saline
[4] = dose: 15.6 mg/kg/injection, schedule: Q01DX010 (ip), vehicle: saline
[5] = dose: 31.3 mg/kg/injection, schedule: Q01DX010 (ip), vehicle: saline
[6] = dose: 62.5 mg/kg/injection, schedule: Q01DX010 (ip), vehicle: saline
[7] = dose: 4.0 mg/kg/injection, schedule: Q01DX010 (ip), vehicle: saline
[8] = dose: 8.0 mg/kg/injection, schedule: Q01DX010 (ip), vehicle: saline
[9] = dose: 16.0 mg/kg/injection, schedule: Q01DX010 (ip), vehicle: saline
[10] = dose: 120.0 mg/kg/injection, schedule: Q01DX010 (ip), vehicle: saline
[11] = dose: 60.0 mg/kg/injection, schedule: Q01DX010 (ip), vehicle: saline
[12] = dose: 20.0 mg/kg/injection, schedule: Q01DX010 (ip), vehicle: saline
[13] = dose: 40.0 mg/kg/injection, schedule: Q01DX010 (ip), vehicle: saline
[14] = dose: 80.0 mg/kg/injection, schedule: Q01DX010 (ip), vehicle: saline
[15] = dose: 200.0 mg/kg/injection, schedule: Q01DX010 (ip), vehicle: saline
[16] = dose: 1.5 mg/kg/injection, schedule: Q01DX010 (ip), vehicle: saline
[17] = dose: 3.0 mg/kg/injection, schedule: Q01DX010 (ip), vehicle: saline
[18] = dose: 6.0 mg/kg/injection, schedule: Q01DX010 (ip), vehicle: saline
[19] = dose: 12.0 mg/kg/injection, schedule: Q01DX010 (ip), vehicle: saline
[20] = dose: 1.0 mg/kg/injection, schedule: Q01DX010 (ip), vehicle: saline
[21] = dose: 2.0 mg/kg/injection, schedule: Q01DX010 (ip), vehicle: saline
[22] = dose: 5.0 mg/kg/injection, schedule: Q01DX010 (ip), vehicle: saline

## CC[C@]1(O)C[C@H]2CN(CCc3c([nH]c4ccccc34)[C@@](C(=O)OC)(c3cc4c(cc3OC)N(C=O)[C@H]3[C@@](O)(C(=O)OC)[C@H](OC(C)=O)[C@]5(CC)C=CCN6CC[C@]43[C@@H]65)C2)C1
dose: 0.03 mg/kg/injection, schedule: Q01DX010 (ip), vehicle: saline
  T/C: 121 % of control and 123 % of control
dose: 0.06 mg/kg/injection, schedule: Q01DX010 (ip), vehicle: saline
  T/C: 157 % of control
dose: 0.12 mg/kg/injection, schedule: Q01DX010 (ip), vehicle: saline
  T/C: 161 % of control and 162 % of control
dose: 0.25 mg/kg/injection, schedule: Q01DX010 (ip), vehicle: saline
  T/C: 90 % of control

## N=[N+]=CC(=O)OCC(N)C(=O)O (configuration not stated)
dose: 3.13 mg/kg/injection, schedule: Q01DX010 (ip), vehicle: saline
  T/C: 110 % of control
dose: 6.25 mg/kg/injection, schedule: Q01DX010 (ip), vehicle: saline
  T/C: 112 % of control and 120 % of control
dose: 12.5 mg/kg/injection, schedule: Q01DX010 (ip), vehicle: saline
  T/C: 108 % of control and 120 % of control
[1]
  T/C: 120 % of control

## COc1cc(-c2ccc(Nc3ccccc3C(=O)O)c(OC)c2)ccc1Nc1ccccc1C(=O)O
[1]
  T/C: 154 % of control
[2]
  T/C: 163 % of control
[3]
  T/C: 172 % of control

## c1ccc(CCSc2ncnc3nc[nH]c23)cc1
[4]
  T/C: 86 % of control
[5]
  T/C: 86 % of control
[6]
  T/C: 100 % of control
dose: 500.0 mg/kg/injection, schedule: Q01DX010 (ip), vehicle: saline
  T/C: 87 % of control

## CC(CCC(C)OS(C)(=O)=O)OS(C)(=O)=O (configuration not stated)
[7]
  T/C: 95 % of control
[8]
  T/C: 87 % of control and 95 % of control
[9]
  T/C: 95 % of control and 100 % of control

## CN(C)c1ccc(Nc2c3ccccc3nc3ccccc23)cc1
dose: 36.0 mg/kg/injection, schedule: Q01DX010 (ip), vehicle: saline
  T/C: 95 % of control and 115 % of control
dose: 54.0 mg/kg/injection, schedule: Q01DX010 (ip), vehicle: saline
  T/C: 115 % of control and 116 % of control
[10]
  T/C: 120 % of control

## CCCCNc1ncnc2c1cnn2C
[4]
  T/C: 105 % of control
[5]
  T/C: 110 % of control
[6]
  T/C: 95 % of control and 110 % of control

## O=C(Nc1ccc(NC(=O)Nc2cccc(C3=NCCN3)c2)cc1)Nc1cccc(C2=NCCN2)c1
[11]
  T/C: 200 % of control and 225 % of control
[10]
  T/C: 250 % of control and 322 % of control
dose: 240.0 mg/kg/injection, schedule: Q01DX010 (ip), vehicle: saline
  T/C: 183 % of control and 235 % of control
dose: 480.0 mg/kg/injection, schedule: Q01DX010 (ip), vehicle: saline
  T/C: 100 % of control and 120 % of control

## OCC1OC(n2cnc3c(=S)nc[nH]c32)C(O)C1O (configuration not stated)
[12]
  T/C: 100 % of control and 105 % of control
[13]
  T/C: 95 % of control and 105 % of control
[14]
  T/C: 100 % of control and 110 % of control
dose: 160.0 mg/kg/injection, schedule: Q01DX010 (ip), vehicle: saline
  T/C: 100 % of control and 105 % of control

## CN(C)/N=N/c1nc[nH]c1C(N)=O
[1]
  T/C: 100 % of control
[2]
  T/C: 90 % of control
[3]
  T/C: 105 % of control and 109 % of control
[15]
  T/C: 90 % of control and 100 % of control

## CN(C)c1ccc(/C=C\c2ccnc3ccccc23)cc1
[16]
  T/C: 100 % of control
[17]
  T/C: 100 % of control
[18]
  T/C: 100 % of control
[19]
  T/C: 105 % of control

## CC(=O)Nc1ccc2nc3ccc(NC(C)=O)cc3[n+](-c3ccccc3)c2c1
[1]
  T/C: 122 % of control
[2]
  T/C: 110 % of control
[3]
  T/C: 106 % of control
[15]
  T/C: 100 % of control and 113 % of control

## C[C@]12C=CC(=O)C=C1CC[C@@H]1[C@@H]2[C@@H](O)C[C@@]2(C)[C@H]1CC[C@]2(O)C(=O)CO
dose: 25.0 mg/kg/injection, schedule: Q01DX010 (sc), vehicle: steriod suspending solution
  T/C: 118 % of control
dose: 50.0 mg/kg/injection, schedule: Q01DX010 (sc), vehicle: steriod suspending solution
  T/C: 109 % of control
dose: 100.0 mg/kg/injection, schedule: Q01DX010 (sc), vehicle: steriod suspending solution
  T/C: 100 % of control
dose: 200.0 mg/kg/injection, schedule: Q01DX010 (sc), vehicle: steriod suspending solution
  T/C: 100 % of control

## O=c1cnn(C2OC(CO)C(O)C2O)c(=O)[nH]1 (configuration not stated)
[15]
  T/C: 100 % of control
dose: 400.0 mg/kg/injection, schedule: Q01DX010 (ip), vehicle: saline
  T/C: 100 % of control
dose: 800.0 mg/kg/injection, schedule: Q01DX010 (ip), vehicle: saline
  T/C: 91 % of control

## Cc1c2oc3c(C)ccc(C(=O)N[C@@H]4C(=O)N[C@H](C(C)C)C(=O)N5CCC[C@H]5C(=O)N(C)CC(=O)N(C)[C@@H](C(C)C)C(=O)O[C@H]4C)c3nc-2c(C(=O)N[C@@H]2C(=O)N[C@H](C(C)C)C(=O)N3CCC[C@H]3C(=O)N(C)CC(=O)N(C)[C@@H](C(C)C)C(=O)O[C@H]2C)c(N)c1=O (I: [aThr][dV]P[Sar][NMeV] / II: [aThr][dV]P[Sar][NMeV]; ester I:1-I:C, II:1-II:C; linker I:N-II:N via Actinocin(9to1))
dose: 25.0 micrograms/kg/injection, schedule: Q01DX010 (ip), vehicle: other
  T/C: 160 % of control
dose: 50.0 micrograms/kg/injection, schedule: Q01DX010 (ip), vehicle: other
  T/C: 190 % of control

## CCN(CC)c1ccc2cc3ccc(=[N+](CC)CC)cc-3oc2c1
[20]
  T/C: 90 % of control
[21]
  T/C: 104 % of control
[7]
  T/C: 100 % of control
[8]
  T/C: 90 % of control

## NC(=O)N(CCCl)N=O
dose: 0.5 mg/kg/injection, schedule: Q01DX010 (ip), vehicle: saline
  T/C: 210 % of control and 213 % of control
[20]
  T/C: 300 % of control
[21]
  T/C: 168 % of control and 300 % of control
[7]
  T/C: 90 % of control

## CSCS(=O)C[C@H](CO)NC(=O)/C=C/c1c(C)[nH]c(=O)[nH]c1=O (some centres not stated)
dose: 62.5 micrograms/kg/injection, schedule: Q01DX010 (ip), vehicle: saline
  T/C: 109 % of control
dose: 125.0 micrograms/kg/injection, schedule: Q01DX010 (ip), vehicle: saline
  T/C: 100 % of control
dose: 250.0 micrograms/kg/injection, schedule: Q01DX010 (ip), vehicle: saline
  T/C: 100 % of control
dose: 500.0 micrograms/kg/injection, schedule: Q01DX010 (ip), vehicle: saline
  T/C: 90 % of control

## N#CCSc1ncnc2nc[nH]c12
dose: 15.0 mg/kg/injection, schedule: Q01DX010 (ip), vehicle: saline
  T/C: 91 % of control
dose: 30.0 mg/kg/injection, schedule: Q01DX010 (ip), vehicle: saline
  T/C: 94 % of control and 95 % of control
[11]
  T/C: 91 % of control and 94 % of control
[10]
  T/C: 94 % of control

## CCCCn1cnc2c(=S)nc[nH]c21
[21]
  T/C: 86 % of control
[7]
  T/C: 86 % of control
[8]
  T/C: 90 % of control

## Clc1ccc(C(c2ccccc2Cl)C(Cl)Cl)cc1 (configuration not stated)
dose: 62.5 mg/kg/injection, schedule: Q01DX010 (sc), vehicle: steriod suspending solution
  T/C: 109 % of control
dose: 125.0 mg/kg/injection, schedule: Q01DX010 (sc), vehicle: steriod suspending solution
  T/C: 100 % of control
dose: 250.0 mg/kg/injection, schedule: Q01DX010 (sc), vehicle: steriod suspending solution
  T/C: 109 % of control
dose: 500.0 mg/kg/injection, schedule: Q01DX010 (sc), vehicle: steriod suspending solution
  T/C: 100 % of control

## COS(C)(=O)=O
[2]
  T/C: 90 % of control

## Nc1ncnc2[nH]ncc12
[16]
  T/C: 100 % of control
[17]
  T/C: 95 % of control and 100 % of control
[18]
  T/C: 100 % of control and 105 % of control
[19]
  T/C: 90 % of control and 110 % of control

## Oc1cc(CN(CCCl)CCCl)c(O)cc1CN(CCCl)CCCl
dose: 0.63 mg/kg/injection, schedule: Q01DX010 (ip), vehicle: saline
  T/C: 104 % of control and 115 % of control
dose: 1.25 mg/kg/injection, schedule: Q01DX010 (ip), vehicle: saline
  T/C: 121 % of control
[22]
  T/C: 115 % of control

## O=c1[nH]c(=O)n(C2CC(O)C(CO)O2)cc1F (configuration not stated)
[22]
  T/C: 95 % of control
dose: 10.0 mg/kg/injection, schedule: Q01DX010 (ip), vehicle: saline
  T/C: 108 % of control and 111 % of control
[12]
  T/C: 108 % of control and 115 % of control
[13]
  T/C: 116 % of control and 123 % of control
[14]
  T/C: 92 % of control

## O=C(Nc1ccc(NC2=NCCN2)cc1)c1ccc(C(=O)Nc2ccc(NC3=NCCN3)cc2)cc1
[21]
  T/C: 150 % of control
[7]
  T/C: 240 % of control and 250 % of control
[8]
  T/C: 250 % of control and 285 % of control
[9]
  T/C: 115 % of control

## O=C(Nc1ccc(C2=NCCN2)cc1)c1cccc(C(=O)Nc2ccc(C3=NCCN3)cc2)c1
[8]
  T/C: 155 % of control and 166 % of control
[9]
  T/C: 185 % of control and 194 % of control
dose: 32.0 mg/kg/injection, schedule: Q01DX010 (ip), vehicle: saline
  T/C: 200 % of control and 238 % of control
dose: 64.0 mg/kg/injection, schedule: Q01DX010 (ip), vehicle: saline
  T/C: 250 % of control and 255 % of control
